Reference: PubChem BioAssay AID2060499 (Molecular Pharmacology Branch, DTP, NCI, 2025)

Tested on: 777334-354-R2-J4-PDC tumor spheroids with HUVEC/MSC, viability
Assay: Anticancer human tumor 777334-354-R2-J4-PDC patient-derived pancreatic adenocarcinoma cell line growth inhibition [GQUAD]
Conditions: for IC50: curve of first compound; for viability, T/C: stronger effect = lower value
How it was run: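 Multi-cell-type spheroids of tumor cells with HUVEC and mesenchymal stem cells, treated with drug combinations. Concentrations descend in half-log steps from near clinical Cmax, or from 10 microM where Cmax is unknown; viability read-out.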

[1] = second compound 0.0316 µM, first compound 0.0316 µM
[2] = second compound 0.0316 µM, first compound 0.1 µM
[3] = second compound 0.0316 µM, first compound 0.316 µM
[4] = second compound 0.0316 µM, first compound 1 µM
[5] = second compound 0.0316 µM, first compound 3.16 µM
[6] = second compound 0.0316 µM, first compound 10 µM
[7] = second compound 0.1 µM, first compound 0.0316 µM
[8] = second compound 0.1 µM, first compound 0.1 µM
[9] = second compound 0.1 µM, first compound 0.316 µM
[10] = second compound 0.1 µM, first compound 1 µM
[11] = second compound 0.1 µM, first compound 3.16 µM
[12] = second compound 0.1 µM, first compound 10 µM
[13] = second compound 0.316 µM, first compound 0.0316 µM
[14] = second compound 0.316 µM, first compound 0.1 µM
[15] = second compound 0.316 µM, first compound 0.316 µM
[16] = second compound 0.316 µM, first compound 1 µM
[17] = second compound 0.316 µM, first compound 3.16 µM
[18] = second compound 0.316 µM, first compound 10 µM
[19] = second compound 1 µM, first compound 0.0316 µM
[20] = second compound 1 µM, first compound 0.1 µM
[21] = second compound 1 µM, first compound 0.316 µM
[22] = second compound 1 µM, first compound 1 µM
[23] = second compound 1 µM, first compound 3.16 µM
[24] = second compound 1 µM, first compound 10 µM
[25] = second compound 3.16 µM, first compound 0.0316 µM
[26] = second compound 3.16 µM, first compound 0.1 µM
[27] = second compound 3.16 µM, first compound 0.316 µM
[28] = second compound 3.16 µM, first compound 1 µM
[29] = second compound 3.16 µM, first compound 3.16 µM
[30] = second compound 3.16 µM, first compound 10 µM
[31] = second compound 10 µM, first compound 0.0316 µM
[32] = second compound 10 µM, first compound 0.1 µM
[33] = second compound 10 µM, first compound 0.316 µM
[34] = second compound 10 µM, first compound 1 µM
[35] = second compound 10 µM, first compound 3.16 µM
[36] = second compound 10 µM, first compound 10 µM
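Further: spheroids exposed to compounds for 7 days before readout.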

`COc1cc(C2c3cc4c(cc3C(OC3OC5COC(C)OC5C(O)C3O)C3COC(=O)C23)OCO4)cc(OC)c1O` (centres undefined) + Cc1[nH]c2ccc(F)cc2c1-c1nc2c3cccnc3c3ncccc3c2[nH]1 was tested, and the IC50 (second compound 0.0316 µM) was 6310 nM, the IC50 (second compound 0.1 µM) was 7250 nM and the IC50 (second compound 0.316 µM) was 5370 nM. For the same compound, the IC50 (second compound 1 µM) was 3270 nM, the IC50 (second compound 3.16 µM) was < 31.6 nM and the IC50 (second compound 10 µM) was < 31.6 nM. It also gave a viability, T/C [1] of 95.9%, a viability, T/C [2] of 91% and a viability, T/C [3] of 90.1%. For the same compound, the viability, T/C [4] was 71.4%, the viability, T/C [5] was 64.4% and the viability, T/C [6] was 41.5%. It also gave a viability, T/C [7] of 104%, a viability, T/C [8] of 91.7% and a viability, T/C [9] of 90.2%. It also gave a viability, T/C [10] of 72.1%, a viability, T/C [11] of 63.4% and a viability, T/C [12] of 44.7%. For the same compound, the viability, T/C [13] was 72.8%, the viability, T/C [14] was 88.6% and the viability, T/C [15] was 84.1%. The viability, T/C [16] was 80%, the viability, T/C [17] was 58.8% and the viability, T/C [18] was 39.7%. The viability, T/C [19] was 89.5%, the viability, T/C [20] was 78.7% and the viability, T/C [21] was 73.5%. It also gave a viability, T/C [22] of 63.6%, a viability, T/C [23] of 54.1% and a viability, T/C [24] of 32.3%. For the same compound, the viability, T/C [25] was 36.6%, the viability, T/C [26] was 47.1% and the viability, T/C [27] was 33.7%. The viability, T/C [28] was 22.4%, the viability, T/C [29] was 22.2% and the viability, T/C [30] was 15.9%. For the same compound, the viability, T/C [31] was 32.6%, the viability, T/C [32] was 22.6% and the viability, T/C [33] was 27.6%. For the same compound, the viability, T/C [34] was 15.1%, the viability, T/C [35] was 16% and the viability, T/C [36] was 12%.
`COc1cccc2c1C(=O)c1c(O)c3c(c(O)c1C2=O)CC(O)(C(=O)CO)CC3OC1CC(N)C(O)C(C)O1` (centres undefined) + Cc1[nH]c2ccc(F)cc2c1-c1nc2c3cccnc3c3ncccc3c2[nH]1 gave an IC50 (second compound 0.0316 µM) of 915 nM, an IC50 (second compound 0.1 µM) of 878 nM and an IC50 (second compound 0.316 µM) of 923 nM. For the same compound, the IC50 (second compound 1 µM) was 646 nM, the IC50 (second compound 3.16 µM) was < 31.6 nM and the IC50 (second compound 10 µM) was < 31.6 nM. For the same compound, the viability, T/C [1] was 102%, the viability, T/C [2] was 83.2% and the viability, T/C [3] was 80.3%. The viability, T/C [4] was 47.1%, the viability, T/C [5] was 22.8% and the viability, T/C [6] was 15%. The viability, T/C [7] was 93.3%, the viability, T/C [8] was 80.5% and the viability, T/C [9] was 69.6%. It also gave a viability, T/C [10] of 49.2%, a viability, T/C [11] of 25.2% and a viability, T/C [12] of 14.9%. For the same compound, the viability, T/C [13] was 74.8%, the viability, T/C [14] was 82.6% and the viability, T/C [15] was 71.2%. The viability, T/C [16] was 46.8%, the viability, T/C [17] was 28.4% and the viability, T/C [18] was 17.4%. For the same compound, the viability, T/C [19] was 74.8%, the viability, T/C [20] was 75.8% and the viability, T/C [21] was 61.1%. It also gave a viability, T/C [22] of 42.9%, a viability, T/C [23] of 22.5% and a viability, T/C [24] of 13.6%. It also gave a viability, T/C [25] of 40.4%, a viability, T/C [26] of 27.8% and a viability, T/C [27] of 24.8%. For the same compound, the viability, T/C [28] was 16.7%, the viability, T/C [29] was 13.9% and the viability, T/C [30] was 9.55%. It also gave a viability, T/C [31] of 32%, a viability, T/C [32] of 23% and a viability, T/C [33] of 22.6%. For the same compound, the viability, T/C [34] was 16.5%, the viability, T/C [35] was 14.9% and the viability, T/C [36] was 10.9%.
